Source: ChEMBL document CHEMBL3885861, “Open TG-GATES”

Organism: Rattus norvegicus
Assay: Open TG-GATES - Regimen: Single
Type: toxicity, organism-based, Sprague-Dawley
Set-up: regimen Single, gender Male, age 6 weeks
Conditions: in vivo, po, 30 mg/kg, route gavage, dose level Middle; for APTT / Bas / Eos / Fbg / Hb / Ht / Lym / MCH / MCHC / MCV / Mono / Neu / PT / Plat / RBC / Ret / WBC: tissue Blood; for KIDNEY_L / KIDNEY_R / KIDNEY_TOTAL: tissue Kidney; for LIVER: tissue Liver; for A/G / ALP / ALT / AST / BUN / CRE / Ca / Cl / DBIL / GLC / IP / K / LDH / Na / PL / RALB / TBIL / TC / TG / TP / gamma-GTP: tissue Plasma

OCCOCCN1CCN(C(c2ccccc2)c2ccc(Cl)cc2)CC1 (stereo unspecified) [HYDROXYZINE]
TERMINAL_BW (3 h): 193.6 g
APTT (3 h): 15.6 s
Bas (3 h): 0.2%
Eos (3 h): 0.8%
Fbg (3 h): 288.4 mg/dL
Hb (3 h): 13 g/dL
Ht (3 h): 40.6%
Lym (3 h): 75.4%
MCH (3 h): 21.5 pg
MCHC (3 h): 31.9%
MCV (3 h): 67.3 fL
Mono (3 h): 3.4%
Neu (3 h): 19.6%
PT (3 h): 15.6 s
Plat (3 h): 107 x10_4/uL
RBC (3 h): 604.4 x10_4/ul
Ret (3 h): 8.9%
WBC (3 h): 83.3 x10_2/uL
KIDNEY_L (3 h): 0.9 g
KIDNEY_R (3 h): 0.9 g
KIDNEY_TOTAL (3 h): 1.8 g
LIVER (3 h): 8.7 g
A/G (3 h): 0.8
ALP (3 h): 1908.4 IU/L
ALT (3 h): 42.4 IU/L
AST (3 h): 74.8 IU/L
BUN (3 h): 9.2 mg/dL
CRE (3 h): 0.2 mg/dL
Ca (3 h): 10.9 mg/dL
Cl (3 h): 106.2 meq/L
DBIL (3 h): 0.012 mg/dL
GLC (3 h): 173.4 mg/dL
IP (3 h): 9.1 mg/dL
K (3 h): 4.4 meq/L
LDH (3 h): 76 IU/L
Na (3 h): 142 meq/L
PL (3 h): 140 mg/dL
RALB (3 h): 2.5 g/dL
TBIL (3 h): 0.058 mg/dL
TC (3 h): 78.6 mg/dL
TG (3 h): 33.2 mg/dL
TP (3 h): 5.4 g/dL
gamma-GTP (3 h): 1 IU/L
TERMINAL_BW (6 h): 192 g
APTT (6 h): 15.5 s
Bas (6 h): 0.2%
Eos (6 h): 0.6%
Fbg (6 h): 289.4 mg/dL
Hb (6 h): 12.9 g/dL
Ht (6 h): 39.9%
Lym (6 h): 78.8%
MCH (6 h): 21.4 pg
MCHC (6 h): 32.2%
MCV (6 h): 66.4 fL
Mono (6 h): 3%
Neu (6 h): 16.8%
PT (6 h): 15.1 s
Plat (6 h): 115.9 x10_4/uL
RBC (6 h): 601.6 x10_4/ul
Ret (6 h): 8.8%
WBC (6 h): 67.5 x10_2/uL
KIDNEY_L (6 h): 0.9 g
KIDNEY_R (6 h): 0.9 g
KIDNEY_TOTAL (6 h): 1.8 g
LIVER (6 h): 8.4 g
A/G (6 h): 0.9
ALP (6 h): 1397.6 IU/L
ALT (6 h): 38.8 IU/L
AST (6 h): 73.6 IU/L
BUN (6 h): 8.4 mg/dL
CRE (6 h): 0.2 mg/dL
Ca (6 h): 10.9 mg/dL
Cl (6 h): 105.8 meq/L
DBIL (6 h): 0.01 mg/dL
GLC (6 h): 180.4 mg/dL
IP (6 h): 10.5 mg/dL
K (6 h): 4.3 meq/L
LDH (6 h): 69.2 IU/L
Na (6 h): 142.6 meq/L
PL (6 h): 141.8 mg/dL
RALB (6 h): 2.5 g/dL
TBIL (6 h): 0.064 mg/dL
TC (6 h): 83.2 mg/dL
TG (6 h): 40.6 mg/dL
TP (6 h): 5.5 g/dL
gamma-GTP (6 h): 0.8 IU/L
